We go through three compounds from ChEMBL document CHEMBL1150138, “The isolation of two new chromone derivatives from the New Zealand fungus Tolypocladium extinguens” (2002).

Each structure is given as a SMILES string. Converted amounts (≈) assume the structure as drawn. The source made the active and inactive calls. No cut-off for these calls is given here.

The test system of one test is P388. The test can be described thus: Cytotoxicity against mouse P388 cells after 1 to 11 days by MTT assay. Format: functional. Particulars: read-out: ID50 (the source's name). On the technique in general: Formazan colour is commonly taken as a measure of viable cells.
The test system of another test is Escherichia coli. As to the kind of experiment: Antimicrobial activity against Escherichia coli by disk susceptibility test. The format is functional, organism-based.
The subject of a further test is Bacillus subtilis. As to the kind of experiment: Antimicrobial activity against Bacillus subtilis by disk susceptibility test. The format is functional, organism-based.
The next test concerns Pseudomonas aeruginosa. As to the kind of experiment: Antimicrobial activity against Pseudomonas aeruginosa by disk susceptibility test. The format is functional, organism-based.
A further test concerns Candida albicans. The test can be described thus: Antimicrobial activity against Candida albicans by disk susceptibility test. Format: functional, organism-based.
The subject of test [1] is Trichophyton mentagrophytes. As to the kind of experiment: Antimicrobial activity against Trichophyton mentagrophytes by disk susceptibility test. Format: functional, organism-based.
The test system of the next test is Amorphotheca resinae. The test can be described thus: Antimicrobial activity against Cladosporium resinae by disk susceptibility test. The format is functional, organism-based.

Consider `COCc1c(OC)cc2oc(C)cc(=O)c2c1O`, for which the IC50 in the test on P388 is 6 mg/L (≈ 24 µM). Moreover, the outcome (in the test with Escherichia coli; in the test on Bacillus subtilis; in the test on Pseudomonas aeruginosa; in the test with Candida albicans; in test [1]; with Amorphotheca resinae) was inactive.

For the compound `COc1cc2oc(C)cc(=O)c2c(O)c1CO`, the result (in the test on Escherichia coli; in the test on Bacillus subtilis; in the test with Pseudomonas aeruginosa; in the test with Candida albicans; in test [1]; with Amorphotheca resinae) was inactive.

Consider `COCc1c(OC)cc2oc(CO)cc(=O)c2c1O`, for which the result (in the test with Escherichia coli; in the test on Bacillus subtilis; in the test with Pseudomonas aeruginosa; with Candida albicans; in test [1]; with Amorphotheca resinae) was inactive.
